Measurements from patent publication US7495027B2, “3-aryl-4-hydroxyfuranone compounds and the human and animal health use thereof” (Wyeth, priority 2003, dated 2009).
Values after ≈ are worked out from the molar mass of the structure shown. Like-named read-outs stand apart in the source and are kept apart here.

Assays:
[1] = molecular target: T1, S. aureus Uridine-diphosphate-N-acetvimuramoyl: L-alanine lipase, MurC (Staphylococcus aureus, UniProt Q2FXJ0); assay: biochemical
T1 sequence (Q2FXJ0 1-437): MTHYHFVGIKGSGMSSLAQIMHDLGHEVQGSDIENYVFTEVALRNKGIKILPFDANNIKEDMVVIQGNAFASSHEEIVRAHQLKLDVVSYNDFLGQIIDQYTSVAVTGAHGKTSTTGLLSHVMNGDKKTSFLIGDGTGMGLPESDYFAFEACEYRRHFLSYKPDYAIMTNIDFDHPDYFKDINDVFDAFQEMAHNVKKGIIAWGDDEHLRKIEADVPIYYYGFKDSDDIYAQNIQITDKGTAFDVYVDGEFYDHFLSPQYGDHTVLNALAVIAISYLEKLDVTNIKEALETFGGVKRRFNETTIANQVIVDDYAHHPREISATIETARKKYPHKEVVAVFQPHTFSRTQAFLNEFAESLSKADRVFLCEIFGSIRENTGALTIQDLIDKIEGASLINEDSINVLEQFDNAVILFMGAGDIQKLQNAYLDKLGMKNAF
In short: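 MurC assay: enzyme (E. coli 100 μg/mL, S. aureus 70 μg/mL stock) with L-Ala and test compound, pre-incubated 10 min at 23 °C, then UDP-MurNac added, 10 min at 37 °C. Phosphate released detected by malachite green–molybdate at 660 nm; IC50 by linear regression.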

[2] = molecular target: T2, S. aureus Uridine-diphosphate-N-acetylmuramoyl-L-alanine: D-glutamate liease, MurD (Staphylococcus aureus, UniProt Q2FZ92); assay: biochemical; conditions: (S) S. aureus enzyme
T2 sequence (Q2FZ92 1-449): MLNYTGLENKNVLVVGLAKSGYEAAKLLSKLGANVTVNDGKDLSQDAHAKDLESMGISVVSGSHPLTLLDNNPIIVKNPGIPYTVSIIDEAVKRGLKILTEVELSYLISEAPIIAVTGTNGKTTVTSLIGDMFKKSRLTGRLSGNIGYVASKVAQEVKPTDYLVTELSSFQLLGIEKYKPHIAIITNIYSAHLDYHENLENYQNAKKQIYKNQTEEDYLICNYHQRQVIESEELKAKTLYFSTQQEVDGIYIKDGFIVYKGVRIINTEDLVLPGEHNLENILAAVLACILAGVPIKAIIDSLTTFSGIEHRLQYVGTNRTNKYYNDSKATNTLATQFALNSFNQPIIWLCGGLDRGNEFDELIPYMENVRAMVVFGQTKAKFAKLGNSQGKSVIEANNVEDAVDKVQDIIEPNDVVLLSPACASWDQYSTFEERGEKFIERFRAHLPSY
In short: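 MurD, which catalyses the fourth step of cell wall biosynthesis, was tested for inhibition by compounds. Compounds were made up as 10 mg/mL DMSO stocks and diluted to 100 μg/mL in 50 mM Tris/HCl, pH 8.5.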

staphylococci = assay: Minimum inhibitory concentration, microdilution broth method, staphylococci; type: cell-based; conditions: Mueller-Hinton broth, 18-22 hours at 35° C.; for MIC: Staphylococcus aureus
In short: (§1)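 Recent clinical isolates, some resistant to methicillin, penicillin and/or vancomycin, were tested by the broth microdilution method of NCCLS Approved Standard M7-A5 2000. Mueller-Hinton broth served for staphylococci and enterococci, while streptococci received the same broth supplemented with 5% horse blood.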

enterococci = assay: Minimum inhibitory concentration, microdilution broth method, enterococci; type: cell-based; conditions: Mueller-Hinton broth, 18-22 hours at 35° C.; for MIC: Enterococcus faecalis
In short: as §1

Streptococci = assay: Minimum inhibitory concentration, microdilution broth method, streptococci; type: cell-based; conditions: Mueller-Hinton broth with 5% horse blood, 18-22 hours at 35° C.; for MIC: S. pneumo GC 1894
In short: as §1

[3] = S. aureus GC 1131, read-out: MIC S. aureus GC 1131
[4] = S. aureus GC 4543, read-out: MIC S. aureus GC 4543
[5] = E. faecalis GC 2242, read-out: MIC E. faecalis GC 2242
[6] = E. faecalis GC 4555, read-out: MIC E. faecalis GC 4555
[7] = (S) S. aureus enzyme, read-out: MurC IC50 (converted)

`O=C1O/C(=C\c2cccc3ccccc23)C(O)=C1c1ccc(C(F)(F)F)cc1` [Example 71] was tested, and the IC50 [1] was 52.3 µM, the IC50 [2] was 62.8 µM and the MIC (staphylococci; [3]) was 8 µg/mL (≈ 20.9 µM). The MIC (staphylococci; [4]) was 8 µg/mL (≈ 20.9 µM), the MIC (enterococci; [5]) was 4 µg/mL (≈ 10.5 µM) and the MIC (enterococci; [6]) was 8 µg/mL (≈ 20.9 µM). It also gave an MIC (Streptococci) of 0.5 µg/mL (≈ 1.31 µM).
For `O=C1O/C(=C\C2CCCCC2)C(O)=C1c1cccc(C(F)(F)F)c1` [Example 17], the IC50 [1, 7] was over 73.9 µM, the IC50 [2] was over 73.9 µM and the MIC (staphylococci; [3]) was 32 µg/mL (≈ 94.6 µM). It also gave an MIC (staphylococci; [4]) of over 128 µg/mL, an MIC (enterococci; [5]) of 32 µg/mL (≈ 94.6 µM) and an MIC (enterococci; [6]) of 64 µg/mL (≈ 189 µM). It also gave an MIC (Streptococci) of under 0.125 µg/mL.
`COc1ccccc1-c1ccc(/C=C2\OC(=O)C(c3cc(Cl)cc(Cl)c3)=C2O)cc1C` [Example 24] showed an IC50 [1, 7] of 26.5 µM, an IC50 [2] of 24.3 µM and an MIC (staphylococci; [3]) of 2 µg/mL (≈ 4.41 µM). It also gave an MIC (staphylococci; [4]) of 1 µg/mL (≈ 2.21 µM), an MIC (enterococci; [5]) of 4 µg/mL (≈ 8.82 µM) and an MIC (enterococci; [6]) of 4 µg/mL (≈ 8.82 µM). The MIC (Streptococci) was 0.5 µg/mL (≈ 1.1 µM).
For `O=C1O/C(=C\c2ccccc2-c2cccc(Cl)c2)C(O)=C1c1cccc(Cl)c1` [Example 140], the IC50 [1, 7] was 19.5 µM, the IC50 [2] was 48.9 µM and the MIC (staphylococci; [3]) was 1 µg/mL (≈ 2.44 µM). It also gave an MIC (staphylococci; [4]) of 1 µg/mL (≈ 2.44 µM), an MIC (enterococci; [5]) of 4 µg/mL (≈ 9.77 µM) and an MIC (enterococci; [6]) of 4 µg/mL (≈ 9.77 µM). The MIC (Streptococci) was 1 µg/mL (≈ 2.44 µM).
`O=C1O/C(=C\C2CCCCC2)C(O)=C1c1ccc2ccccc2c1` [Example 51] was tested, and the IC50 [1, 7] was 62.4 µM, the IC50 [2] was over 78 µM and the MIC (staphylococci; [3]) was over 128 µg/mL. The MIC (staphylococci; [4]) was 16 µg/mL (≈ 49.9 µM), the MIC (enterococci; [5]) was 8 µg/mL (≈ 25 µM) and the MIC (enterococci; [6]) was 32 µg/mL (≈ 99.9 µM). The MIC (Streptococci) was under 0.125 µg/mL.
`O=C1O/C(=C\c2cccc(C(F)(F)F)c2)C(O)=C1c1ccc2ccccc2c1` [Example 42] was tested, and the IC50 [1, 7] was 47.1 µM, the IC50 [2] was over 65.4 µM and the MIC (staphylococci; [3]) was 8 µg/mL (≈ 20.9 µM). It also gave an MIC (staphylococci; [4]) of 8 µg/mL (≈ 20.9 µM), an MIC (enterococci; [5]) of 8 µg/mL (≈ 20.9 µM) and an MIC (enterococci; [6]) of 32 µg/mL (≈ 83.7 µM). For the same compound, the MIC (Streptococci) was 8 µg/mL (≈ 20.9 µM).
Compound `COc1cc(/C=C2\OC(=O)C(c3cc(Cl)cc(Cl)c3)=C2O)ccc1-c1ccccc1C` [Example 25] has an IC50 [1, 7] of 26.5 µM, an IC50 [2] of 30.9 µM and an MIC (staphylococci; [3]) of 1 µg/mL (≈ 2.21 µM). The MIC (staphylococci; [4]) was 0.5 µg/mL (≈ 1.1 µM), the MIC (enterococci; [5]) was 2 µg/mL (≈ 4.41 µM) and the MIC (enterococci; [6]) was 4 µg/mL (≈ 8.82 µM). The MIC (Streptococci) was 0.25 µg/mL (≈ 0.551 µM).
In the case of `O=C1O/C(=C\c2ccc(-c3ccccc3)cc2)C(O)=C1c1cc(Cl)cc(Cl)c1` [Example 67], the IC50 [1, 7] is reported as 44 µM, the IC50 [2] is reported as 19.5 µM and the “MIC S. aureus GC 4543” value (staphylococci; S. aureus GC 4543) is reported as 0.5 µg/mL (≈ 1.22 µM). For the same compound, the MIC (staphylococci; [3]) was 1 µg/mL (≈ 2.44 µM), the MIC (enterococci; [5]) was 0.5 µg/mL (≈ 1.22 µM) and the MIC (enterococci; [6]) was 2 µg/mL (≈ 4.89 µM). It also gave an MIC (Streptococci) of under 0.125 µg/mL.
`Cc1ccc(/C=C2\OC(=O)C(c3ccc(-c4ccccc4)cc3)=C2O)s1` [Example 104] gave an IC50 [1, 7] of 52.7 µM, an IC50 [2] of over 69.4 µM and an MIC (staphylococci; [3]) of 16 µg/mL (≈ 44.4 µM). For the same compound, the MIC (staphylococci; [4]) was 32 µg/mL (≈ 88.8 µM), the MIC (enterococci; [5]) was 32 µg/mL (≈ 88.8 µM) and the MIC (enterococci; [6]) was 64 µg/mL (≈ 178 µM). It also gave an MIC (Streptococci) of 0.5 µg/mL (≈ 1.39 µM).
Compound `O=C1O/C(=C\c2ccc(N3CCOCC3)c3ccccc23)C(O)=C1c1cc(Cl)cc(Cl)c1` [Example 38] has an IC50 [1, 7] of 14.9 µM, an IC50 [2] of 12.8 µM and an MIC (staphylococci; [3]) of 8 µg/mL (≈ 17.1 µM). It also gave an MIC (staphylococci; [4]) of 8 µg/mL (≈ 17.1 µM), an MIC (enterococci; [5]) of 16 µg/mL (≈ 34.2 µM) and an MIC (enterococci; [6]) of 32 µg/mL (≈ 68.3 µM). The MIC (Streptococci) was 1 µg/mL (≈ 2.14 µM).
`CN(C)c1ccc(/C=C2\OC(=O)C(c3ccc(C(F)(F)F)cc3)=C2O)c2ccccc12` [Example 81] gave an IC50 [1, 7] of 37.6 µM, an IC50 [2] of over 58.8 µM and an MIC (staphylococci; [3]) of 8 µg/mL (≈ 18.8 µM). The MIC (staphylococci; [4]) was 8 µg/mL (≈ 18.8 µM), the MIC (enterococci; [5]) was 16 µg/mL (≈ 37.6 µM) and the MIC (enterococci; [6]) was 32 µg/mL (≈ 75.2 µM). It also gave an MIC (Streptococci) of 1 µg/mL (≈ 2.35 µM).
`Cc1ccc(C=C2OC(=O)C(c3ccc(Cl)cc3)=C2O)s1` (mixture of isomers) [Example 13] was tested, and the “MurC IC50” value ([1]; (S) S. aureus enzyme) was 15 µg/mL, the “MurD IC50” value [2] was 20 µg/mL and the “MIC S. aureus GC 1131” value (staphylococci; S. aureus GC 1131) was 64 µg/mL. For the same compound, the “MIC S. aureus GC 4543” value (staphylococci; S. aureus GC 4543) was over 128 µg/mL, the “MIC E. faecalis GC 2242” value (enterococci; E. faecalis GC 2242) was over 128 µg/mL and the “MIC E. faecalis GC 4555” value (enterococci; E. faecalis GC 4555) was over 128 µg/mL. For the same compound, the “MIC S. pneumo GC 1894” value (Streptococci) was 2 µg/mL.
